In PMC3104989 (PLoS ONE, 2011):

target: T1, Hog1 (Saccharomyces cerevisiae, UniProt P32485); test: in vitro radiometric kinase assay with biotinylated Sic1 peptide; format: biochemical
T1 sequence (P32485 2-435): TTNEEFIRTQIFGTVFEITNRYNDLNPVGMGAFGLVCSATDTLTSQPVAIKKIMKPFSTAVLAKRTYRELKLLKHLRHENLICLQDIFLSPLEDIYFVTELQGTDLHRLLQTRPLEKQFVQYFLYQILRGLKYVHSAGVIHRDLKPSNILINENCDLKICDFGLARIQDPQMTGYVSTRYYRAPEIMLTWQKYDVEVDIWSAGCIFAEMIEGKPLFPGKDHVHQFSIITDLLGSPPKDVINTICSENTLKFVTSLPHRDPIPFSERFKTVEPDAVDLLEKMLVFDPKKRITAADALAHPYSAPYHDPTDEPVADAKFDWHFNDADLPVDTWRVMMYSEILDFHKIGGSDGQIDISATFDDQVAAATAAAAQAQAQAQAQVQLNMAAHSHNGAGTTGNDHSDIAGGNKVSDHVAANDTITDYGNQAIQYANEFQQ

Row | IC50 | SMILES
1 | 7.4 ± 0.41 nM | CC(C)Nc1cc(-c2c(-c3ccccc3)nnn2Cc2ccccc2)ccn1 [4a, 4-(1-benzyl-4-phenyl-1H-1,2,3-triazol-5-yl)-N-isopropylpyridin-2-amine]
2 | 6.2 ± 2.2 nM | CC(C)Nc1cc(-c2c(-c3ccc(F)cc3)nnn2Cc2ccccc2)ccn1 [4b, 4-(1-benzyl-4-(4-fluorophenyl)-1H-1,2,3-triazol-5-yl)-N-iso-propyl-pyridin-2-amine]

target: T1, Hog1; test: in vitro radiometric kinase assay, single dose […]; format: biochemical

Row | remaining activity at 0.1 µM | SMILES
3 | 50 to 70% | Fc1ccc(-c2nnn(CC3CC3)c2-c2ccncc2)cc1 [1a]
4 | 50 to 70% | c1ccc(Cn2nnc(-c3ccccc3)c2-c2ccncc2)cc1 [1b]
5 | 50 to 70% | Fc1ccc(-c2nnn(Cc3ccccc3)c2-c2ccncc2)cc1 [1c]
6 | 50 to 70% | Clc1ccc(-c2nnn(Cc3ccccc3)c2-c2ccncc2)cc1 [1d]
7 | 50 to 70% | Brc1ccc(-c2nnn(Cc3ccccc3)c2-c2ccncc2)cc1 [1e]
8 | 35 to 40% | CC1CCC(Nc2cc(-c3c(-c4ccc(F)cc4)nnn3Cc3ccccc3)ccn2)CC1 (stereo not drawn) [4d, 4-(1-benzyl-4-(4-fluorophenyl)-1H-1,2,3-triazol-5-yl)-N-(4-methyl-cyclohexyl)pyridin-2-amine]
9 | 35 to 40% | C[C@H](Nc1cc(-c2c(-c3ccc(F)cc3)nnn2Cc2ccccc2)ccn1)c1ccccc1 [4e, (S)-4-(1-benzyl-4-(4-fluorophenyl)-1H-1,2,3-triazol-5-yl)-N-(1-phenylethyl)pyridin-2-amine]
